What was measured:
[1] = target: T1, Muscarinic acetylcholine receptor M5 (Rattus norvegicus) (UniProt P08911); assay: Orthosteric antagonist activity at M5 muscarinic receptor in rat striatal slices assessed as inhibition of 10 uM oxotremorine-evoked [3H]DA release
T1 sequence (whole entry): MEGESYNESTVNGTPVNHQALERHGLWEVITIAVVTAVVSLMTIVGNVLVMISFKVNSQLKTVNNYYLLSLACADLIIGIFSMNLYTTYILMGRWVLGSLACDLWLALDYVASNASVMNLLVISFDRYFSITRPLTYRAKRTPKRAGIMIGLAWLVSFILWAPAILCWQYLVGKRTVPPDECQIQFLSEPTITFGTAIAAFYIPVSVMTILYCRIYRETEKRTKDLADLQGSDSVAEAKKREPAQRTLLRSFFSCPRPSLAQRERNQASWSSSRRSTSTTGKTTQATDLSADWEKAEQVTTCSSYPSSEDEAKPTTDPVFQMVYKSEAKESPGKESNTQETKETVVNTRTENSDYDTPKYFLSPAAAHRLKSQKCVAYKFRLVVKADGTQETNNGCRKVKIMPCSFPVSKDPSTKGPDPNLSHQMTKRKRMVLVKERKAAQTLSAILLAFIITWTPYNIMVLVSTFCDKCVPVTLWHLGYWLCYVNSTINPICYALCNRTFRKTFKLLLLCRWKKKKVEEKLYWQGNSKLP

[2] = target: T1, Muscarinic acetylcholine receptor M5 (Rattus norvegicus); conditions: at 1 µM
[3] = target: T2, Muscarinic acetylcholine receptor M2 (Homo sapiens, UniProt P08172)
T2 sequence (P08172 whole entry): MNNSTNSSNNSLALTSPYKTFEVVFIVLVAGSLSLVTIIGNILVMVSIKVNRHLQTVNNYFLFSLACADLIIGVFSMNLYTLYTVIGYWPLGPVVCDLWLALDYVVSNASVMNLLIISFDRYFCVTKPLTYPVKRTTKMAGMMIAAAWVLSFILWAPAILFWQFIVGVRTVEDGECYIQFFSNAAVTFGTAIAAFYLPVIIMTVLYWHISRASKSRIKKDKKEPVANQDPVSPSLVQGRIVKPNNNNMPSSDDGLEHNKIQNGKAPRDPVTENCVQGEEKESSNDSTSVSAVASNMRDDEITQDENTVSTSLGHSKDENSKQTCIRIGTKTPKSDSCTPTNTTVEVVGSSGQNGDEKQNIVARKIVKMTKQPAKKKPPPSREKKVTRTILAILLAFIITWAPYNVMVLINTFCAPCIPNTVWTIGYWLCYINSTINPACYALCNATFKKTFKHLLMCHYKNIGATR

[4] = target: T3, Muscarinic acetylcholine receptor M3 (Homo sapiens, UniProt P20309); assay: Binding affinity to human M3 muscarinic receptor
[5] = target: T4, Muscarinic acetylcholine receptor M4 (Homo sapiens, UniProt P08173); assay: Binding affinity to human M4 muscarinic receptor
T4 sequence (P08173 whole entry): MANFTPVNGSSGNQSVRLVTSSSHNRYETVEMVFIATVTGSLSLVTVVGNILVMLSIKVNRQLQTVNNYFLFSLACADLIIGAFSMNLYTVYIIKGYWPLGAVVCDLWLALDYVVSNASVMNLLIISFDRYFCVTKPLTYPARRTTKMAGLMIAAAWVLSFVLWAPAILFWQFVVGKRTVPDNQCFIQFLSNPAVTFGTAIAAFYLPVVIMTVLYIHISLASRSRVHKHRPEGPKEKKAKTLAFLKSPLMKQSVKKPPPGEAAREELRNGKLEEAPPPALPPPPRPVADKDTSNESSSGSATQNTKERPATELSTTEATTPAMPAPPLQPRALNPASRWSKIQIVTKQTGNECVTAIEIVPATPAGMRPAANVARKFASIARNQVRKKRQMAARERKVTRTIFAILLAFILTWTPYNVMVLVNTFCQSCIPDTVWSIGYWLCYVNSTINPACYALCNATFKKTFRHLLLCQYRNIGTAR

Homo sapiens [6] = species: Homo sapiens; assay: Selectivity index, ratio of Ki for human M3 muscarinic receptor to Ki for human M5 muscarinic receptor
Homo sapiens [7] = species: Homo sapiens; assay: Selectivity index, ratio of Ki for human M4 muscarinic receptor to Ki for human M5 muscarinic receptor
Homo sapiens [8] = species: Homo sapiens; assay: Selectivity index, ratio of Ki for human M1 muscarinic receptor to Ki for human M5 muscarinic receptor
[9] = target: T2, Muscarinic acetylcholine receptor M2; assay: Displacement of [3H]NMS from human M2 muscarinic receptor expressed in CHO-K1 cells; type: cell-based
[10] = target: T4, Muscarinic acetylcholine receptor M4; assay: Displacement of [3H]NMS from human M4 muscarinic receptor expressed in CHO-K1 cells; type: cell-based
[11] = target: T5, Muscarinic acetylcholine receptor M5 (Homo sapiens, UniProt P08912); assay: Displacement of [3H]NMS from human M5 muscarinic receptor expressed in CHO-K1 cells; type: cell-based
T5 sequence (P08912 whole entry): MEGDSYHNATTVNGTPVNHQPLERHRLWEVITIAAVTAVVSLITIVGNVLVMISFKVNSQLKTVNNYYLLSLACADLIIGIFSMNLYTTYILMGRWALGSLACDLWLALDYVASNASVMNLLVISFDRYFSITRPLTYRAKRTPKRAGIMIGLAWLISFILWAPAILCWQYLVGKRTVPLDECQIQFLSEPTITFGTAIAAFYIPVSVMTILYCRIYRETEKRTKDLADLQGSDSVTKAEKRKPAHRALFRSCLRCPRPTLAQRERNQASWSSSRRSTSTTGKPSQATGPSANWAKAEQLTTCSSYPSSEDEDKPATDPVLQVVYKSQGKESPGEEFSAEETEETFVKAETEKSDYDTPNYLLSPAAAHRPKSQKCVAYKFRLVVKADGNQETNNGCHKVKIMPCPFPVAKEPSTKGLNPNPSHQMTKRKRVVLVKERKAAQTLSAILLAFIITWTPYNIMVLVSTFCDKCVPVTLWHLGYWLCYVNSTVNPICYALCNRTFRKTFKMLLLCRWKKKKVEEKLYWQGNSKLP

[12] = target: T3, Muscarinic acetylcholine receptor M3; assay: Displacement of [3H]NMS from human M3 muscarinic receptor expressed in CHO-K1 cells; type: cell-based
[13] = target: T6, Muscarinic acetylcholine receptor M1 (Homo sapiens, UniProt P11229); assay: biochemical; type: cell-based, CHO-K1
T6 sequence (P11229 whole entry): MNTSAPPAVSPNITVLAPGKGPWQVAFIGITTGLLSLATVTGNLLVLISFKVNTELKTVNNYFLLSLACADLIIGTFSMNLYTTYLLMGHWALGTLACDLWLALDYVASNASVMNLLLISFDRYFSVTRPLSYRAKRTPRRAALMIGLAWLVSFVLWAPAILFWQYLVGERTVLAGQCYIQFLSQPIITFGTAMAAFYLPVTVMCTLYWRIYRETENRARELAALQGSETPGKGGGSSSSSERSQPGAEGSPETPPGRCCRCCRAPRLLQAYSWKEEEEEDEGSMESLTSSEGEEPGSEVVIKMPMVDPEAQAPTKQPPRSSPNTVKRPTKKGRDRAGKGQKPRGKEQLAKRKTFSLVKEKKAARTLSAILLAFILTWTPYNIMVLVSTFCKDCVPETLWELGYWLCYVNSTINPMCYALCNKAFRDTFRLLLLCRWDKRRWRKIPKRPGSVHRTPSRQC

T3 sequence (P20309 whole entry): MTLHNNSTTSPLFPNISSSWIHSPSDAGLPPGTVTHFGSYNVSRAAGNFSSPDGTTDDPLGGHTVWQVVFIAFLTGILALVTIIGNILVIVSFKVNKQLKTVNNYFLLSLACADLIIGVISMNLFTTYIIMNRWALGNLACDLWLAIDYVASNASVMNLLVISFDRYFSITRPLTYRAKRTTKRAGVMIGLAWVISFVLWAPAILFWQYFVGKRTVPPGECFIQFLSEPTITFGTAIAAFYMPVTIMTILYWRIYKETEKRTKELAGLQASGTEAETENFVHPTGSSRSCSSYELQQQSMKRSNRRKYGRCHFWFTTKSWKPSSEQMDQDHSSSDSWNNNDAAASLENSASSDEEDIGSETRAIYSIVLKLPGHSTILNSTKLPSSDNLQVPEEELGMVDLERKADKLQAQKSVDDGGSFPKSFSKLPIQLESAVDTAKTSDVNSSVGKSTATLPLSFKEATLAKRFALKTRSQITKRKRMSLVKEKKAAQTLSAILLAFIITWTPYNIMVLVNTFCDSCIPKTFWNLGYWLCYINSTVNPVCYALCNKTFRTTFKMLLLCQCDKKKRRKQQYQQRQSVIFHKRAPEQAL

`CN1[C@@H]2C[C@@H](OC(=O)[C@H](CO)c3ccccc3)C[C@H]1[C@@H]1O[C@@H]12` was tested, and the inhibition [1] was “Dose-dependent effect” and the Imax [2] was 100%.
Work on `CCN(CC)CC1CCCCN1CC(=O)N1c2ccccc2C(=O)Nc2cccnc21` (stereo not drawn) [OTENZEPAD] yielded a Ki [3] of 81 nM, a Ki [4] of 2090 nM and a Ki [5] of 407 nM.
For `CCN1CCC(c2ccccc2)=C(C(=O)OCCc2ccc3c(c2)CCO3)C1`, the Ratio Ki (Homo sapiens [6]) was 135, the Ratio Ki (Homo sapiens [7]) was 46 and the Ratio Ki (Homo sapiens [8]) was 6. For the same compound, the Ki [9] was over 100000 nM, the Ki [10] was 10500 nM and the Ki [11] was 230 nM. It also gave a Ki [12] of 31100 nM and a Ki [13] of 1390 nM.

Reference: ChEMBL document CHEMBL2311283, “Structural modifications to tetrahydropyridine-3-carboxylate esters en route to the discovery of M5-preferring muscarinic receptor orthosteric antagonists” (J Med Chem, 2013)
